Some test systems named below: A498; M14; ACHN; HT-29; COLO 205; MOLT-4; SR; OVCAR-5; MDA-MB-231; HCT-116; NCI/ADR-RES; K562; LOX IMVI; SK-OV-3; NCI-H23; HOP-92; U-251; SNB-19; SW-620; KM-20L2.
Assay in all cases: NCI anticancer screen, dose series, 48 h

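96-well plates; 48 h exposure; 5 concentrations. Endpoints by linear interpolation between flanking doses. Not reached: highest tested concentration assigned. At the GI50, growth is halved.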 Activity calls are given as the source filed them. No stated cut-off is given here; in the data, active = GI50 up to about 1.1 µM and inactive = higher. Where only a bound is given, the exact number is not on record here.

Consider `CC1OC(=O)C2CC3CCCCC3C(/C=C/C3CCCC(C)N3C)C12` (stereo not given), for which the GI50 in the test on A498, in the test on M14, with ACHN, in the test on HT-29, with COLO 205 and in the test on MOLT-4 was > 100 µM (inactive) each time. Further, the GI50 in the test with SR, in the test with OVCAR-5, in the test with MDA-MB-231, in the test on HCT-116, in the test with NCI/ADR-RES and with K562 was > 100 µM (inactive) each time. The GI50 in the test on LOX IMVI, with SK-OV-3, in the test on NCI-H23, in the test on HOP-92, in the test with U-251 and in the test on SNB-19 was > 100 µM (inactive) in each case. The GI50 in the test with SW-620 is > 100 µM (inactive); with KM-20L2, 79.8 µM (inactive).
Take `CCCCCCCCCCCC[S+](C)C`: the GI50 is 10.7 µM (inactive) with A498; 5.14 µM (inactive) in the test on M14; 4.56 µM (inactive) in the test on ACHN; 3.41 µM (inactive) in the test with HT-29; 1.29 µM (inactive) in the test with COLO 205; 4.94 µM (inactive) in the test with MOLT-4. Moreover, the GI50 in the test on SR was 8.69 µM (inactive); in the test with OVCAR-5, 8.43 µM (inactive); in the test on MDA-MB-231, 0.0124 µM (active); with HCT-116, 6.22 µM (inactive); in the test with NCI/ADR-RES, > 44.1 µM (inactive); in the test with K562, 3.48 µM (inactive). The GI50 in the test with LOX IMVI was 2.86 µM (inactive); in the test with SK-OV-3, 8.49 µM (inactive); in the test with NCI-H23, 4.48 µM (inactive); in the test with HOP-92 it was 1.63 µM (inactive); in the test on U-251, 5.25 µM (inactive); in the test with SNB-19, 6.59 µM (inactive). Moreover, the GI50 in the test with SW-620 is 9.23 µM (inactive); in the test with KM-20L2 it was 5.11 µM (inactive).

For the origin of these results see ChEMBL document CHEMBL1201862, “PubChem BioAssay data set” (2004).
